We go through three compounds from patent publication US6346406B1, “Elongation factor-2 kinase (EF-2 kinase), and methods of use therefor” (University of Medicine & Dentistry of New Jersey, priority 1997, dated 2002).

Assay [1] relates to recombinant human eEF-2 kinase. As to the kind of experiment: eEF-2 kinase activity assay: phosphorylation of rabbit reticulocyte eEF-2 with [γ-32P]ATP, SDS/PAGE and autoradiography. In kind it is biochemical. The following applies: kinase expressed in coupled transcription/translation system, assayed without further purification; 20 μM antagonist is printed in the FIG. 3 legend for panel C. As for the experimental part:
FIG. 3. Activity of recombinant eEF-2 kinase in vitro. A large scale (0.5 ml) reaction using a mixture of Cefk-1 and Cefk-2 plasmids was run as in FIG. 2, with the omission of labeled methionine. In the control experiment, the reaction was run with a plasmid containing a luciferase gene. (A) The reaction mixtures were separated by chromatography on a Mono Q column as described. (B) eEF-2 kinase activity in fractions was measured as the ability to phosphorylate purified rabbit eEF-2 in the presence of [γ-^32 P]ATP. Purified rabbit reticulocyte eEF-2 kinase was used in the (+) control experiments. (C) Ca^2+/calmodulin-dependency of recombinant C. elegans eEF-2 kinase. Mono Q fraction 25 was assayed in a standard eEF-2 kinase assay in the presence and absence of Ca^2+ and calmodulin and 20 μM trifluoperazine (TFP) or N-(6 aminohexyl)-5-chloro-1-napthalene-sulfonamide (W7). (D) Ca^2+/calmodulin-dependency of recombinant human eEF-2 kinase. […]
To assay for eEF-2 kinase activity, 5 μl from each fraction was added to a reaction mixture (40 μl) containing 50 mM Hepes-KOH (ph. 7.4) 10 mM magnesium acetate, 0.1 mM CaCl2, 5 mM dithiothreitol, 50 μM ATP, 2 μCi [γ-^32P]ATP, 0.6 μg calmodulin, and 0.5 μg rabbit reticulocyte eEF-2. […] Phosphoproteins were analyzed by autoradiography. […]

The target in assay [2] is T1, recombinant eEF-2 kinase (Homo sapiens, UniProt O00418).
T1 construct: one of GST (pGEX-2T), 6xHis (pRSET A) or thioredoxin (pThioHisB); made in house; host or cells: Escherichia coli BL21(DE3)
In words: eEF-2 kinase activity assay using a 16-amino acid peptide derived from myosin heavy chain as the phosphorylation target. Format: biochemical. The following applies: [γ-33P]ATP, 30° C., phosphocellulose paper, scintillation counting. The procedure:
FIG. 8. Assay for eEF-2 kinase activity. Recombinant eEF-2 kinase (2 μg) was incubated with increasing concentrations of a peptide phosphorylation target (RKKGESEKTKTKEFL) in a buffer consisting of 12.5 mM Hepes-KOH (pH 7.4), 2.5 mM magnesium acetate, 1.25 mM DTT, 25 μM CaCl2, 0.5 μg calmodulin, 100 μM ATP, and 0.5 μCi [γ-^33P]ATP in a total volume of 50 μl. Samples were incubated at 30° C. and aliquots were withdrawn at various time points, and the reaction was terminated by incubation in an ice water bath. The aliquots were then spotted onto phosphocellulose paper (2 cm×2 cm) and washed (4×4 min) with 75 mM phosphoric acid. The papers were then rinsed with 100% ethanol, dried, and then counted in a scintillation counter.
Human eEF-2 kinase cDNA was cloned into three different expression vectors: pGEX-2T (Pharmacia Biotech, Piscataway, N.J.); pRSET A (Invitrogen, Sorrento Valley, Calif.); and, pThioHisB (Invitrogen). After transformation into Escherichia coli strain BL21(DE3), transformants were cultured in LB broth containing 50 μg/ml ampicillin. When the cultured reached an A600 value of 0.7, isopropyl-β-thiogalactopyranoside (IPTG) was added to the bacterial cultures to a final concentration of […] to induce expression. […] The refolded protein was analyzed by SDS-PAGE and assayed for the ability to phosphorylate eEF-2. […]

Turning to `NCCCCCCNS(=O)(=O)c1cccc2c(Cl)cccc12` [N-(6-aminohexyl)-5-chloro-1-napthalene-sulfonamide], in assay [1], the “inhibition of recombinant human eEF-2 kinase activity by calmodulin antagonists” value is reported as “completely inhibited”. Consider “RKKFGESEKTKTKEFL [16-mer peptide based on the phosphorylation site of Dictyostelium discoideum MHC, substrate for eEF-2 kinase]”, for which the “ability to serve as substrate (phosphoacceptor) for eEF-2 kinase” value in assay [2] is “good substrate”. Regarding `CN1CCN(CCCN2c3ccccc3Sc3ccc(C(F)(F)F)cc32)CC1` [trifluoperazine], the “inhibition of recombinant human eEF-2 kinase activity by calmodulin antagonists” value in assay [1] is “completely inhibited”.
